# Measurements published in patent US5712274A, “Thienotriazolodiazepine compounds and their pharmaceutical use” (Yoshitomi Pharmaceutical Industries, Ltd., priority 1995, dated 1998).
# Columns and labels:
# VCAM-1 = assay: Inhibitory effect on TNF-α-induced expression of VCAM-1 in HUVECs; type: cell-based; settings: Homo sapiens, HUVEC; HUVECs, TNF-α 20 U/ml, 5 hr; read-out: Inhibitory effect (IC50) on CAM-1 expression
# Description: (§1) Inhibitory effect on expression of VCAM-1 and ELAM-1 in human umbilical vein-derived endothelial cells (HUVECs)
# (§2) HUVECs were suspended in 199 medium containing 20% FCS, 20 μg/ml endothelial cell growth factor derived from bovine brain, and 100 μg/ml heparin, plated into 96-well microculture plates coated with collagen, and cultured at 37° C. in 5% CO2. When cells were grown to confluence, the cells received tumour necrosis factor (TNF)-α (20 U/ml for VCAM-1 expression, 100 U/ml for ELAM-1 expression) and cultured for 5 hr. After the cells were washed once with 199 medium, mouse anti-human VCAM-1 monoclonal antibody (2 μg/ml) or rat anti-human ELAM-1 monoclonal antibody (2 μg/ml) was added, and the cells were incubated for 1 hr at room temperature. After the cells were washed twice, peroxidase-conjugated anti-mouse immunoglobulin antibody or anti-rat immunoglobulin antibody was added, and the cells were incubated for 1 hr at room temperature. After the cells were washed 3 times, 2,2'-azino-bis(3-ethylbenzothiazolone-6-sulfonic acid) was added. After the plates were stood for 15 min at room temperature, absorbance at 405 nm with a reference wave length of 490 nm was measured with a 96-well microplate reader and was regarded as a indicator of VCAM-1 or ELAM-1 expression.
# ELAM-1 = assay: Inhibitory effect on TNF-α-induced expression of ELAM-1 in HUVECs; type: cell-based; settings: Homo sapiens, HUVEC; HUVECs, TNF-α 100 U/ml, 5 hr; read-out: Inhibitory effect (IC50) on ELAM-1 expression
# Description: as §1, §2
# [1] = test system: lipopolysaccharide (LPS)-induced adhesion of leukocytes; assay: Effect on lipopolysaccharide (LPS)-induced adhesion of leukocytes; type: in vivo, BALB/c mice; settings: 6 hr after LPS
# Source text: Effect on lipopolysaccharide (LPS)-induced adhesion of leukocytes
# It has been reported that, by the administration of LPS to mice, an adhesion molecule, Mac-1-dependent leukocyte adhesion is induced, the leukocytes infiltrate into lung, liver and so on, and in result the number of peripheral blood leukocytes reduces (Morisaki et al., Clin. Immunol. Immunopathol., 61, 365-375, 1991). The effect on LPS-induced leukocyte adhesion was investigated by taking the reduction of peripheral blood leukocytes as an indicator of leukocyte adhesion.
# LPS solution (50 ng/ml in saline, 0,5 ml/mouse) was injected into peritoneal cavity of BALB/c mice on day 0. Six hr after the LPS injection, the number of peripheral blood leukocytes was counted with an automatic blood cell counter. Test compounds were suspended in 0.5% hydroxypropylmethylcellulose solution and administered p.o. (0.1 ml/10 g body weight) on days -4 to 0.
smiles,measurement,setting,value
"CNC(=O)C[C@@H]1N=C(c2ccc(Cl)cc2)c2c(sc(C)c2C)-n2c(C)nnc21 [Example 1, (S)-N-methyl-4-(4-chloro-phenyl)-2,3,9-trimethyl-6H-thieno[3,2-f][1,2,4]triazolo[4,3-a]-[1,4]diazepine-6-acetamide 1/4 hydrate]",IC50,VCAM-1,25 nM
same,IC50,ELAM-1,52 nM
same,Number of peripheral blood leukocytes (mean ± S.D.),[1]; 0.3 mg/kg/day p.o.,32 ± 5 × 100/μl
same,Number of peripheral blood leukocytes (mean ± S.D.),[1]; 1 mg/kg/day p.o.,50 ± 15 × 100/μl
same,Number of peripheral blood leukocytes (mean ± S.D.),[1]; 3 mg/kg/day p.o.,61 ± 13 × 100/μl
